This passage reports IC50 results from patent US8853175B2, “Phenethylsulfone isoindoline derivatives and their use” (Celgene Corporation, priority 2010, dated 2014).

In one experiment the test system is PDE 4. In words: PDE 4 inhibition assay. Type of experiment: biochemical, human. The following applies: crude PDE 4 enzyme from U937 cells; 1 μM cAMP; read-out: IC50 for inhibiting PDE 4. On the procedure:
PDE 4 inhibition may be assays using any methods conventionally known in the art. For example, using a modification of the method of Hill and Mitchell [Hill and Mitchell, Faseb J., 8, A217 (1994)], U937 cells (a human promonocytic cell line) are grown to 1×10^6 cells/mL and collected by centrifugation. A cell pellet of 1×10^9 cells is washed in phosphate buffered saline and then frozen at −70° C. for later purification or immediately lysed in cold homogenization buffer (20 mM Tris-HCl, pH 7.1, 3 mM 2-mercaptoethanol, 1 mM magnesium chloride, 0.1 mM ethylene glycol-bis-(β-aminoethyl ether)-N,N,N^1,N^1-tetraacetic acid (EGTA), 1 μM phenylmethylsulfonyl fluoride (PMSF), and 1 μg/mL leupeptin). Cells are homogenized with 20 strokes in a Dounce homogenizer and the supernatant containing the cytosolic fraction are obtained by centrifugation. The supernatant is then loaded onto a Sephacryl S-200 column equilibrated in homogenization buffer. […]
The phosphodiesterase assay is carried out based on the procedure described by Hill and Mitchell. […] Each data point is carried out in duplicate and activity is expressed as percentage of control. The IC50s of the compounds are then determined from dose response curves of a minimum of three independent experiments.

The test system of a further experiment is TNFα. Put plainly: TNFα inhibition assay in PBMC (LPS-stimulated). Type of experiment: cell-based. To be noted: Homo sapiens; PBMC stimulated with LPS 1 ng/ml; TNFα by ELISA; read-out: IC50 for inhibiting TNFα. On the procedure: Peripheral blood mononuclear cells (PBMC) from normal donors are obtained by Ficoll Hypaque (Pharmacia, Piscataway, N.J., USA) density centrifugation. Cells are cultured in RPMI 1640 (Life Technologies, Grand Island, N.Y., USA) supplemented with 10% AB+human serum (Gemini Bio-products, Woodland, Calif., USA), 2 mM L-glutamine, 100 U/ml penicillin, and 100 μg/ml streptomycin (Life Technologies).
PBMC (2×10^5 cells) are plated in 96-well flat-bottom Costar tissue culture plates (Corning, N.Y., USA) in triplicate. Cells are stimulated with LPS (from Salmonella abortus equi, Sigma cat. no. L-1887, St. Louis, Mo. USA) at 1 ng/ml final in the absence or presence of compounds. Compounds provided herein are dissolved in DMSO (Sigma) and further dilutions are done in culture medium immediately before use. The final DMSO concentration in all assays can be about 0.25%. Compounds are added to cells 1 hour before LTS stimulation. Cells are then incubated for 18-20 hours at 37° C. in 5% CO2, and supernatants are then collected, diluted with culture medium and assayed for TNFα levels by ELISA (Endogen, Boston, Mass. USA). IC50s are calculated using non-linear regression, sigmoidal dose-response, constraining the top to 100% and bottom to 0%, allowing variable slope (GraphPad Prism v3.02).

In the case of `CCOc1cc([C@@H](CS(C)(=O)=O)N2C(=O)c3cccc(NC(=O)CO)c3C2=O)ccc1OC` [(1S)—N-{2-[1-(3-Ethoxy-4-Methoxy-Phenyl)-2-Methanesulfonyl-Ethyl]-1,3-Dioxo-2,3-Dihydro-1H-Isoindol-4-yl}-2-Hydroxy-Acetamide], the IC50 with PDE 4 was ~10 nM; in the experiment with TNFα, ~200 nM.

As a reminder, the IC50 is the concentration at which inhibition is half-maximal.
